{
  "source": "patent US20070098665A1",
  "about": "“Effects of skin surface temperature on the epidermal permeability barrier homeostasis” (Shiseido Company, Ltd., priority 2005, published 2007)",
  "key": {"hairless mice skin [1]": {"system": "hairless mice skin", "assay": "Barrier recovery (TEWL) after tape stripping with topical application of reagent", "assay_type": "in vivo, hairless mice (HR-1)", "settings": "for effect on barrier recovery (percent recovery of TEWL): topical, 100 μl aqueous solution containing 1 μM of reagent immediately after tape stripping, TEWL at 1, 3 and 6 hours, vs water control, FIG. 3", "experimental": "All experiments were performed on 7-10-week old male hairless mice (HR-1, Hoshino, Japan). All procedures for measuring of skin barrier function, disrupting the barrier and applying the sample were carried out under anesthesia. All experiments were approved by the Animal Research Committee of the Shiseido Research Center in accordance with the National Research Council Guide (National Research Council 1996). Human skin experiments were carried out on the inner forearm of healthy males who gave their informed consent. 4 alpha-phorbol 12,13-[…] (4 alpha-PDD) and Rutenium-Red were purchased from Sigma (Sigma, St.Louis, Mich. USA). Capsaicin, capsazepine, and 2-aminoethoxydiphenyl borate (2-APB) were purchased from Tocris (TOCRIS, Bristol, UK). Camphor was purchased Wako (Wako, Osaka, Japan). Capsaicin is an agonist of TRPV1 and capsazepine is an antagonist of TRPV1 (Caterina et al. 1997). Both 2-APB and camphor are activator of TRPV3 (Chung et al. 2003)(Moquich et al. 2005). 4 alpha-PDD is an activator of TRPV4 and Rutenium-Red is a blocker of TRPV4 (Watanabe et al. 2002).\n(§1) Permeability barrier function was evaluated by measurement of transepidermal water loss (TEWL) with an electric water analyzer, as described previously (Denda et al. 1998). For barrier recovery experiments, both sides of flank skin were treated with repeated tape stripping procedure until the TEWL reached 7-10 mg per cm^2 per h, as described previously (Denda et al. 1998). Immediately after barrier disruption, 100 μl of an aqueous solution containing 1 μM of reagent or water alone (control) was applied to the treated area. […] The areas were covered with plastic membranes for 15 min and then the membranes were removed. Two points in one side of flank were measured and 4-8 mice were used to evaluate the effects of each treatment. We always disrupted the barrier within 7:00 AM to 8:00 AM and carried out the following measurements of the barrier repair to avoid the deviation of the repair rate due to the influence of circadian rhythm (Denda et al. 2000). TEWL was then measured over the same sites at 1, 3 and 6 hours after barrier disruption. The barrier recovery results are expressed as percent of recovery, because of variations from day to day in the extent of barrier disruption. In each animal, the percentage of recovery was calculated by the following formula: (TEWL immediately after barrier disruption−TEWL at indicated time point)/(TEWL immediately after barrier disruption−baseline TEWL)×100%. All experiments were performed on 7 to 10-week-old male hairless mice (HR-1, Hoshino, Japan). All procedures of the measurement of skin barrier function, disruption of the barrier and application of test sample were carried out under anesthesia.\nThe results are expressed as the mean ± SD. Statistical differences between two groups were determined by a two-tailed Student's t-test. In the case of more than 2 groups, differences were determined by ANOVA test (Fisher's protected least significant difference)."}, "hairless mice skin [2]": {"system": "hairless mice skin", "assay": "Barrier recovery (TEWL) after tape stripping with applied heat plus topical reagent", "assay_type": "in vivo, hairless mice (HR-1)", "settings": "topical application, FIG. 4", "experimental": "as §1, with “We always disrupted the barrier within 7:00 AM to 8:00 AM and carried out the following measurements of the barrier repair to avoid the deviation of the repair rate due to the influence of circadian rhythm (Denda et al. 2000).” left out, “All experiments were performed on 7 to 10-week-old male hairless mice (HR-1, Hoshino, Japan). All procedures of the measurement of skin barrier function, disruption of the barrier and application of test sample were carried out under anesthesia.” left out\nThe results are expressed as the mean ± SD. Statistical differences between two groups were determined by a two-tailed Student's t-test. […]"}},
  "data": [
    {"compound": "CCCCCCCCCC(=O)O[C@@H]1[C@@H](C)[C@@]2(O)[C@@H](C=C(CO)C[C@@]3(O)C(=O)C(C)=C[C@@H]23)[C@@H]2C(C)(C)[C@]12OC(=O)CCCCCCCCC", "note": "[4 alpha-PDD, 4 alpha-phorbol 12,13-didecanoate]", "values": [
      {"measurement": "effect on barrier recovery (percent recovery of TEWL)", "setting": "hairless mice skin [1]", "value": "accelerated the barrier recovery"}
    ]},
    {"compound": "Oc1cc2c(cc1O)CN(C(=S)NCCc1ccc(Cl)cc1)CCC2", "note": "[capsazepine]", "values": [
      {"measurement": "effect on the delay of barrier recovery after capsaicin application", "setting": "hairless mice skin [1]; topical application on hairless mice skin after tape stripping, as worded in the summary b8", "value": "the delay was blocked"},
      {"measurement": "effect on barrier recovery (percent recovery of TEWL)", "setting": "hairless mice skin [1]", "value": "accelerated the barrier repair"},
      {"measurement": "effect on the delay of the barrier recovery by heat 42° C.", "setting": "hairless mice skin [2]; heat 42° C. applied for one hour after tape stripping", "value": "blocked the delay of the barrier recovery by heat 42 °C"}
    ]},
    {"compound": "NCCOB(c1ccccc1)c1ccccc1", "note": "[2-aminoethoxydiphenyl borate]", "values": [
      {"measurement": "effect on barrier recovery (percent recovery of TEWL)", "setting": "hairless mice skin [1]", "value": "did not affect the barrier recovery rate"}
    ]},
    {"compound": "COc1cc(CNC(=O)CCCC/C=C/C(C)C)ccc1O", "note": "[capsaicin, Capsaicin]", "values": [
      {"measurement": "effect on barrier recovery (percent recovery of TEWL)", "setting": "hairless mice skin [1]", "value": "delayed the barrier recovery"}
    ]},
    {"compound": "CC12CCC(CC1=O)C2(C)C", "note": "(stereo not drawn) [camphor, Camphor]", "values": [
      {"measurement": "effect on barrier recovery (percent recovery of TEWL)", "setting": "hairless mice skin [1]", "value": "did not affect the barrier recovery rate"}
    ]},
    {"compound": "Rutenium-Red", "values": [
      {"measurement": "effect on barrier recovery (percent recovery of TEWL)", "setting": "hairless mice skin [1]", "value": "delayed the recovery"},
      {"measurement": "effect on the acceleration of the barrier recovery by heat 36° C.", "setting": "hairless mice skin [2]; heat 36° C. applied for one hour after tape stripping", "value": "blocked the acceleration of the barrier recovery by heat 36 °C"}
    ]}
  ]
}
